According to paper PMC6934184, “Selective DNA-PKcs inhibition extends the therapeutic index of localized radiotherapy and chemotherapy” (The Journal of Clinical Investigation, 2019):

Molecular target: T1, GSK3B (GSK3 beta) (Homo sapiens, UniProt P49841)
T1 construct: purchased Thermo Fisher Scientific (Life Technologies) SelectScreen
Test: SelectScreen Z'LYTE
Type: biochemical
Summary of the method: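 NU5455 was profiled across the SelectScreen Broad panel of kinase activity and binding assays. Z'LYTE reactions such as CSF1R ran at apparent Km ATP, while the Adapta CAMK1 assay used ATP listed as 10. Values are given as percent.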

T1 sequence (P49841 whole entry): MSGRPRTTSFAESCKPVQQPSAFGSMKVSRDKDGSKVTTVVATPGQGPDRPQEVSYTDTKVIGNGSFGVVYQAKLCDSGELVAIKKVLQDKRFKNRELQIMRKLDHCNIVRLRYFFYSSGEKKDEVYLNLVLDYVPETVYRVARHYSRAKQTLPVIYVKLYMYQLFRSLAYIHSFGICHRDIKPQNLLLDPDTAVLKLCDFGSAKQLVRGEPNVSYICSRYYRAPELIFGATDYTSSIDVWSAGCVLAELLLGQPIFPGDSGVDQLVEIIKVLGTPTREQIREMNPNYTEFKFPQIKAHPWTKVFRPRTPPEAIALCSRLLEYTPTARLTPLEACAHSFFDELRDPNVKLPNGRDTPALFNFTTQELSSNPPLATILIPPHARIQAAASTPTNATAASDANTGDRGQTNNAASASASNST

**Q.** With `CN(C(=O)CN1CCOCC1)c1ccc2sc3c(-c4cccc5c(=O)cc(N6CC7CCC(C6)O7)oc45)cccc3c2c1` [NU5455] as the compound, how does the inhibition at 1 µM read?
**A.** -2.5%
